Consider 13 compounds from patent US4564619A, “Carbostyril derivative” (Otsuka Pharmaceutical Co., Ltd., priority 1982, dated 1986).

One may read the inhibition as the relative decrease from the control value, in per cent.

The subject of assay [1] is ADP-induced aggregation in rabbit platelets. Put plainly: Inhibition of ADP-induced platelet aggregation in rabbit platelet rich plasma. In kind it is cell-based. As to conditions: Oryctolagus cuniculus, read-out: Inhibition rate of ADP-induced aggregation; for inhibition at 100 µM (stock): Concentration of the test compound solution 10^-4 mole. The procedure:
(§1) The platelet aggregation inhibitory effect was measured by using a Platelet Aggregation Tracer Model PAT-6M (manufactured by Nikoh Bio-Science Co., Ltd.) by a method according to Kimura, et al., [IGAKU-NO-AYUMI (Progress in Medicine), Vol. 114, No. 9, pp. 718-727, Aug. 30, 1980, and Nature, pp. 927-929, 1962].
(§2) The blood sample used for the test was a 1:9 (by volume) mixture of "3.8%-CITRATE"® (a registered trademark for 3.8%-sodium citrate, manufactured by Green Cross Corp.) and whole blood collected from rabbits. Said sample was subjected to 10-minute centrifugal separation at 1,000 r.p.m. (200xG) to obtain a platelet rich plasma (PRP). The PRP thus obtained was separated, and the remaining blood sample was further subjected to 15-minute centrifugal separation at 3,000 r.p.m. (2,000xG) to obtain a platelet poor plasma (PPP).
(§3) The number of platelets in the PRP was counted by the Brecher-Clonkite Method, and the PRP was diluted with the PPP to prepare a PRP sample with a platelet concentration of 600,000/microliter to prepare for an adenosine diphosphate (ADP)-induced aggregation test, and a collagen-induced aggregation test. 0.2 Milliliter of the PRP sample was added to 2 microliters of a solution of a test compound of predetermined concentration and this mixture was placed in a 37° C. thermostat for one minute. Then 20 microliters of an ADP or collagen solution was added to the mixture. In this test, the ADP solution was prepared by adjustment to a concentration of 7.5×10^-5 M by using Auren-Beronal buffer solution (pH 7.35). Further, the collagen solution was prepared by adjustment to a concentration of 200 micrograms/ml by using collagen reagent of "Holm"® (manufactured by Hormon-Chemie Munchen, GmbH.) which was diluted wih a physiological saline solution.
(§4) The transmittance of the resultant test mixture was determined and the change of transmittance was recorded by using the aggregometer at a stirrer speed of 1,100 r.p.m.
(§5) The platelet aggregation inhibitory effect of the test compound was measured in terms of inhibition rate (%) with respect to the aggregation rate of the controls. The aggregation rate was calculated from the following formula.
(§6) Aggregation rate=[(c-a)/(b-a)]×100
(§7) The percent inhibition is calculated from the following formula.
(§8) Inhibition rate (%)=[(A-B)/A]×100
(§9) The inhibitory effect of the test compounds on collagen-induced aggregation in rabbit platelets is shown in Table 1, similarly such effect on ADP-induced aggregation in rabbit platelets is shown in Table 2.

In assay [2] the test system is collagen-induced aggregation in rabbit platelets. The assay can be described thus: Inhibition of collagen-induced platelet aggregation in rabbit platelet rich plasma. The settings on record: Oryctolagus cuniculus, read-out: Inhibition rate of collagen-induced aggregation; for inhibition at 100 µM (stock): Concentration of the test compound solution 10^-4 mole; for inhibition at 10 µM (stock): Concentration of the test compound solution 10^-5 mole. In kind it is cell-based. The procedure:
as §1, §2, §3, §4, §5, §6, §7, §8, §9

Assay [3] is described as follows: Change of blood pressure, intravenous administration, anesthetized dog. In kind it is in vivo. More on the design: unit not given here. The settings on record: femoral artery. The protocol:
(§10) The change of blood flow in coronary artery and the change of blood pressure were measured by a method according to Yakura et al., [Japan Journal of Pharmacology, Vol. 57, pages 380-391 (1961)] and according to Taira, et al. [Clin. Exp. Pharmacol. Physiol., Vol. 6, pages 301-316, (1976)].
(§11) An adult bastard dog of either sex weighing 8-13 kg was anesthetized with sodium pentobarbital at the rate of 30 mg/kg by intraveneous administration, then the dog was fixed in supination and was theracotomized under a condition of forced breathing. After another intraveneous administration of sodium heparin at the rate of 500 U/kg, 100 U/kg per hour, the dog was subjected to the following experiments.
(§12) (2) Intraveneous administration
(§13) Morawitz's cannula was cannulated to the coronary sinus venosus through the auricula dextra cordis, and the blood in vein was circulated to the right carotid. The blood flow was measured by an electromagnetic blood flow meter equipped with a blood flow observation probe in the extracorporeal circulation path of the vein. The systolic force was measured by a systolometer (pick-up) placed at the left ventricle of heart, the blood pressure was measured from the femoral artery, and the heart rate was measured from the pulse. A compound to be tested was administered through the cannula being cannulated in femoral vein. The increased amount of the blood flow in coronary artery after the administration of the test compound is shown in Table 4, also the change of blood pressure is shown in Table 5.

Another assay relates to coronary artery. The assay can be described thus: Increased amount of the blood flow in coronary artery, intravenous administration, anesthetized dog. In kind it is in vivo. The procedure: as §10, §11, §12, §13

Regarding `COC(=O)C1=C(C)NC(C)=C(C(=O)OCCCCOc2ccc3c(c2)CCC(=O)N3)C1c1ccccc1` (stereo not drawn) [Compound 28, 6-[4-(2,6-Dimethyl-5-methoxycarbonyl-4-phenyl-1,4-dihydropyridin-3-carboxy)butoxy]-3,4-dihydrocarbostyril], the values for the inhibition at 100 µM (stock) in assay [1] and in assay [2] were 52% and 63%, respectively. The “Change of blood pressure” value in assay [3] (3 micrograms/kg) was -1; in assay [3] (10 micrograms/kg) it was -10; in assay [3] (30 micrograms/kg), -7; in assay [3] (100 micrograms/kg), -20; in assay [3] (300 micrograms/kg) it was -47.

As to `COC(=O)C1=C(C)NC(C)=C(C(=O)OCC(COc2ccc3c(c2)CCC(=O)N3)OC(C)=O)C1c1cccc([N+](=O)[O-])c1` (stereo not drawn) [Compound 23, 6-{3-[2,6-Dimethyl-5-methoxycarbonyl-4-(3-nitrophenyl)-1,4-dihydropyridin-3-carboxy]-2-acetoxypropoxy}-3,4-dihydrocarbostyril], the results for the inhibition at 100 µM (stock) in assay [1] and in assay [2] were 79% and 100%, respectively. The inhibition at 10 µM (stock) in assay [1] (Concentration of the test compound solution 10^-5 mole) and in assay [2] was 29% in each case.

As for `COC(=O)C1=C(C)NC(C)=C(C(=O)OCCCCOc2cccc3c2CCC(=O)N3)C1c1cccc([N+](=O)[O-])c1` (stereo not drawn) [Compound 17, 5-{4-[2,6-Dimethyl-5-methoxycarbonyl-4-(3-nitrophenyl)-1,4-dihydropyridin-3-carboxy]-butoxy}-3,4-dihydrocarbostyril], the “Change of blood pressure” value in assay [3] (10 micrograms/kg) is recorded as -4; in assay [3] (30 micrograms/kg), -14; in assay [3] (100 micrograms/kg), -55; in assay [3] (300 micrograms/kg), -76.

With `CCCOc1ccc(OCCCOC(=O)C2=C(C)NC(C)=C(C(=O)OC)C2c2cccc([N+](=O)[O-])c2)c2c1NC(=O)CC2` (stereo not drawn) [Compound 11, 5-{3-[2,6-Dimethyl-5-methoxycarbonyl-4-(3-nitrophenyl)-1,4-dihydropyridin-3-carboxy]-propoxy}-8-propoxy-3,4-dihydrocarbostyril], in assay [1], the inhibition at 100 µM (stock) came to 11%. In addition, the “Change of blood pressure” value in assay [3] (3 micrograms/kg) is recorded as -5; in assay [3] (10 micrograms/kg), -18; in assay [3] (30 micrograms/kg), -33; in assay [3] (100 micrograms/kg), -41; in assay [3] (300 micrograms/kg) it was -48. Besides, the “Increased amount of the blood flow in coronary artery” value with coronary artery (3 micrograms/kg) is 7 mL/min; in the assay with coronary artery (10 micrograms/kg), 26 mL/min; in the assay on coronary artery (30 micrograms/kg), 58 mL/min; with coronary artery (100 micrograms/kg), 56 mL/min; with coronary artery (300 micrograms/kg), 73 mL/min.

On to `COC(=O)C1=C(C)NC(C)=C(C(=O)OCC(O)COc2ccc3c(c2)CCC(=O)N3)C1c1cccc([N+](=O)[O-])c1` (stereo not drawn) [Compound 39, 6-{3-[2,6-Dimethyl-5-methoxycarbonyl-4-(3-nitrophenyl)-1,4-dihydropyridin-3-carboxy]-2-hydroxypropoxy}-3,4-dihydro-carbostyril], for which, in assay [1], the inhibition at 100 µM (stock) turned out to be 76%. In addition, in assay [2], the inhibition at 100 µM (stock) amounted to 100% and the inhibition at 10 µM (stock) was 19%.

Take `COC(=O)C1=C(C)NC(C)=C(C(=O)OCCCCOc2ccc3c(c2)CCC(=O)N3)C1c1ccc(OC)c(OC)c1` (stereo not drawn) [Compound 40, 6-{4-[2,6-Dimethyl-5-methoxycarbonyl-4-(3,4-dimethoxyphenyl)-1,4-dihydropyridin-3-carboxy]butoxy}-3,4-dihydrocarbostyril]: the inhibition at 100 µM (stock) in assay [1] was found to be 14%; in assay [2], 15%.

For the compound `COC(=O)C1=C(C)NC(C)=C(C(=O)OCCCCOc2ccc3c(c2)CCC(=O)N3)C1c1cccc([N+](=O)[O-])c1` (stereo not drawn) [Compound 16, 6-{4-[2,6-Dimethyl-5-methoxycarbonyl-4-(3-nitrophenyl)-1,4-dihydropyridin-3-carboxy]-butoxy}-3,4-dihydrocarbostyril], the “Change of blood pressure” value is -3 in assay [3] (3 micrograms/kg), -12 in assay [3] (10 micrograms/kg), -27 in assay [3] (30 micrograms/kg) and -54 in assay [3] (300 micrograms/kg).

On to `COC(=O)C1=C(C)NC(C)=C(C(=O)OCCCCOc2ccc3c(c2)CCC(=O)N3)C1c1ccccc1C(F)(F)F` (stereo not drawn) [Compound 25, 6-{4-[2,6-Dimethyl-5-methoxycarbonyl-4-(2-trifluoromethylphenyl)-1,4-dihydropyridin-3-carboxy]butoxy}-3,4-dihydrocarbostyril], for which the results for the “Change of blood pressure” value in assay [3] (3 micrograms/kg), in assay [3] (10 micrograms/kg) and in assay [3] (30 micrograms/kg) were -9, -34 and -46, respectively.

As to `COC(=O)C1=C(C)NC(C)=C(C(=O)OCCOc2ccc3c(c2)NC(=O)CC3)C1c1cccc([N+](=O)[O-])c1` (stereo not drawn) [Compound 14, 7-{2-[2,6-Dimethyl-5-methoxycarbonyl-4-(3-nitrophenyl)-1,4,-dihydropyridin-3-carboxy]-ethoxy}-3,4-dihydrocarbostyril], the “Change of blood pressure” value was -2 in assay [3] (30 micrograms/kg), -14 in assay [3] (100 micrograms/kg) and -32 in assay [3] (300 micrograms/kg).

`C#CCOc1ccc(OCCCOC(=O)C2=C(C)NC(C)=C(C(=O)OC)C2c2cccc([N+](=O)[O-])c2)c2c1NC(=O)CC2` (stereo not drawn) [Compound 12, 5-{3-[2,6-Dimethyl-5-methoxycarbonyl-4-(3-nitrophenyl)-1,4-dihydropyridin-3-carboxy]-propoxy}-8-(2-propynyloxy)-3,4-dihydrocarbostyril]: the inhibition at 100 µM (stock) in assay [1] was determined as 14%. Moreover, the results for the “Change of blood pressure” value in assay [3] (10 micrograms/kg), in assay [3] (30 micrograms/kg) and in assay [3] (100 micrograms/kg) were -5, -23 and -49, respectively. In addition, the “Increased amount of the blood flow in coronary artery” value in the assay with coronary artery (3 micrograms/kg) is 5 mL/min; in the assay on coronary artery (10 micrograms/kg), 30 mL/min; in the assay with coronary artery (30 micrograms/kg), 74 mL/min; in the assay on coronary artery (100 micrograms/kg), 63 mL/min.

In the case of `COC(=O)C1=C(C)NC(C)=C(C(=O)OCCOc2cccc3c2NC(=O)CC3)C1c1cccc([N+](=O)[O-])c1` (stereo not drawn) [Compound 13, 8-{2-[2,6-Dimethyl-5-methoxycarbonyl-4-(3-nitrophenyl)-1,4-dihydropyridin-3-carboxy]-ethoxy}-3,4-dihydrocarbostyril], the “Change of blood pressure” value in assay [3] (3 micrograms/kg) is given as -7; in assay [3] (10 micrograms/kg) it was -16; in assay [3] (30 micrograms/kg), -32; in assay [3] (100 micrograms/kg), -52.

With `COC(=O)C1=C(C)NC(C)=C(C(=O)OCCCCOc2ccc3c(c2)CCC(=O)N3)C1c1ccc(Cl)cc1Cl` (stereo not drawn) [Compound 42, 6-{4-[2,6-Dimethyl-5-methoxycarbonyl-4-(2,4-dichlorophenyl)-1,4-dihydropyridin-3-carboxy]butoxy}-3,4-dihydrocarbostyril], the inhibition at 100 µM (stock) in assay [1] worked out at 26%; in assay [2], 39%.

For the compound `COC(=O)C1=C(C)NC(C)=C(C(=O)OCCCCOc2ccc3c(c2)CCC(=O)N3)C1c1cc(OC)c(OC)c(OC)c1` (stereo not drawn) [Compound 41, 6-{4-[2,6-Dimethyl-5-methoxycarbonyl-4-(3,4,5-trimethoxyphenyl)-1,4-dihydropyridin-3-carboxy]butoxy}-3,4-dihydrocarbostyril], the inhibition at 100 µM (stock) worked out at 30% in assay [1] and 35% in assay [2].
